Test results reported in patent US20240246908A1 (ORION CORPORATION, priority 2021, published 2024).
pIC50: −log10 of the molar value.

These compounds were tested on YAP-TEAD (assay: TEAD inhibition, Hippo Pathway TEAD Reporter MCF-7 luciferase assay). Settings: Homo sapiens, MCF7, 24 h, Hippo Pathway TEAD Reporter MCF-7 cells, luciferase activity after 24 h; read-out: IC50 of the test compounds on YAP-TEAD inhibition (Group).
Type: cell-based
Experimental: TEAD inhibition was assayed using Hippo Pathway TEAD Reporter—MCF-7 cell line (BPS Bioscience, Catalog #: 60618) which contains firefly luciferase gene under the control of TEAD responsive elements. In the cell line, YAP1 remains in the nucleus inducing constitutive expression of luciferase reporter. Amount of expressed luciferase was detected using ONE-Glo Luciferase Assay System (Promega) and measuring plates with Enspire Multimode Plate Reader (PerkinElmer).
Hippo Pathway TEAD Reporter—MCF-7 cells were plated on white/clear Poly-D-Lysine coated 384 plates (Corning #356660) at the density of 8500 cells/well. Next day test compounds (11 concentrations with 4 replicates) and DMSO control (0.1%) were added to the plate. After 24 h cells were lysed and luciferase activity was measured. The half maximal inhibitory concentration (IC50) of the test compounds on YAP-TEAD inhibition was determined.

Row | Compound | pIC50
1 | COc1ccc(COc2cccc(F)c2)cc1NC(=O)[C@H]1NC(=O)C[C@@H]1C (racemic) [Compound 6, rac-(trans)-N-(5-((3-Fluorophenoxy)methyl)-2-methoxyphenyl)-3-methyl-5-oxopyrrolidine-2-carboxamide] | 5.70 to 6.52
2 | COc1ccc(COc2cccc(F)c2)cc1NC(=O)[C@H]1NC(=O)C[C@H]1C (racemic) [Compound 20, rac-(cis)-N-(5-((3-Fluorophenoxy)methyl)-2-methoxyphenyl)-3-methyl-5-oxo-pyrrolidine-2-carboxamide] | 5.70 to 6.52
3 | COc1ccc(Oc2cccc(C(F)(F)F)c2)cc1NC(=O)[C@@H]1CCC(=O)N1C(C)=O (stereo in doubt) [Compound 30, 1-Acetyl-N-(2-methoxy-5-(3-(trifluoromethyl)phenoxy)phenyl)-5-oxo-pyrrolidine-2-carboxamide] | 6.52 to 7.30
4 | COc1ccc(Oc2ccc(C(F)(F)F)cc2)cc1NC(=O)[C@@H]1CCC(=O)N1 (stereo in doubt) [Compound 46, N-(2-Methoxy-5-(4-(trifluoromethyl)phenoxy)phenyl)-5-oxopyrrolidine-2-carboxamide] | 5.70 to 6.52
5 | COc1cc(NC(=O)C2CCC(=O)N2C)cc(OC2CCC(F)(F)CC2)c1 (stereo in doubt) [Compound 275, (R)—N-(3-((4,4-Difluorocyclohexyl)oxy)-5-methoxyphenyl)-1-methyl-5-oxo-pyrrolidine-2-carboxamide] | 6.52 to 7.30
6 | COc1ccc(Oc2cccc(F)c2)cc1NC(=O)C1CCC(=O)N1C(C)=O (centres unmarked) [Compound 2, 1-Acetyl-N-(5-(3-fluorophenoxy)-2-methoxyphenyl)-5-oxopyrrolidine-2-carboxamide] | 5.70 to 6.52
7 | COc1ccc(COc2cccc(F)c2)cc1NC(=O)C1CCC(=O)N1C(C)=O (centres unmarked) [Compound 3, 1-Acetyl-N-(5-((3-fluorophenoxy)methyl)-2-methoxyphenyl)-5-oxopyrrolidine-2-carboxamide] | 5.70 to 6.52
8 | COc1cc(OC)c(NC(=O)C2CCC(=O)N2)cc1COc1cccc(F)c1 (centres unmarked) [Compound 4, N-(5-((3-Fluorophenoxy)methyl)-2,4-dimethoxyphenyl)-5-oxopyrrolidine-2-carboxamide] | 5.70 to 6.52
9 | COc1ccc(COc2cccc(F)c2)cc1NC(=O)C1CN(CCF)C1 [Compound 5, 1-(2-Fluoroethyl)-N-(5-((3-fluorophenoxy)methyl)-2-methoxyphenyl)azetidine-3-carboxamide] | 5.70 to 6.52
10 | O=C1CC(C(=O)Nc2cccc(Oc3cccc(C(F)(F)F)c3)c2)N1 (centres unmarked) [Compound 7, 4-Oxo-N-(3-(3-(trifluoromethyl)phenoxy)phenyl)azetidine-2-carboxamide] | 5.70 to 6.52
11 | COc1ccc(Oc2cccc(C(F)(F)F)c2)cc1NC(=O)CC1CCC(=O)N1 (centres unmarked) [Compound 9, N-(2-Methoxy-5-(3-(trifluoromethyl)phenoxy)phenyl)-2-(5-oxopyrrolidin-2-yl)acetamide] | 5.70 to 6.52
12 | COc1ccc(Oc2cccc(C(F)(F)F)c2)cc1NC(=O)C1CCC(=O)N1 (centres unmarked) [Compound 10, N-(2-Methoxy-5-(3-(trifluoromethyl)phenoxy)phenyl)-5-oxopyrrolidine-2-carboxamide] | 6.52 to 7.30
13 | COc1ccc(Oc2cccc(C(F)(F)F)c2)cc1NC(=O)C1CCS(=O)(=O)C1 (centres unmarked) [Compound 12, N-(2-Methoxy-5-(3-(trifluoromethyl)phenoxy)phenyl)tetrahydrothiophene-3-carboxamide 1,1-dioxide] | 5.70 to 6.52
14 | COc1ccc(Oc2cccc(C(F)(F)F)c2)cc1NC(=O)C1(C)CCC(=O)N1 (centres unmarked) [Compound 14, N-(2-Methoxy-5-(3-(trifluoromethyl)phenoxy)phenyl)-2-methyl-5-oxopyrrolidi-ne-2-carboxamide] | 5.70 to 6.52
15 | COc1ccc(Oc2cccc(F)c2)cc1NC(=O)C1(C)CCC(=O)N1 (centres unmarked) [Compound 15, N-(5-(3-Fluorophenoxy)-2-methoxyphenyl)-2-methyl-5-oxopyrrolidine-2-carboxamide] | 5.70 to 6.52
16 | O=C1CCC(C(=O)Nc2cccc(Oc3cccc(C(F)(F)F)c3)c2)N1 (centres unmarked) [Compound 16, 5-Oxo-N-(3-(3-(trifluoromethyl)phenoxy)phenyl) pyrrolidine-2-carboxamide] | 5.70 to 6.52
17 | COc1ccc(Oc2cccc(F)c2)cc1NC(=O)C12CCC(=O)N1CCS2 (centres unmarked) [Compound 18, N-(5-(3-Fluorophenoxy)-2-methoxyphenyl)-5-oxotetrahydropyrrolo[2,1-b]-thiazole-7a(5H)-carboxamide] | 6.52 to 7.30
18 | COc1ccc(Oc2cccc(C(F)(F)F)c2)cc1NC(=O)C12CCC(=O)N1CCS2 (centres unmarked) [Compound 19, N-(2-Methoxy-5-(3-(trifluoromethyl)phenoxy)phenyl)-5-oxotetrahydropyrrolo[2,1-b]thiazole-7a(5H)-carboxamide] | 6.52 to 7.30
19 | COc1ccc(/C=C/C2CCC(F)(F)CC2)cc1NC(=O)C1CCC(=O)N1 (centres unmarked) [Compound 21, (E)-N-(5-(2-(4,4-Difluorocyclohexyl)vinyl)-2-methoxyphenyl)-5-oxopyrroli-dine-2-carboxamide] | > 7.30
20 | COc1ccc(/C=C/C2CCC(F)(F)CC2)cc1NC(=O)C1CCC(=O)N1C (centres unmarked) [Compound 22, (E)-N-(5-(2-(4,4-Difluorocyclohexyl)vinyl)-2-methoxyphenyl)-1-methyl-5-oxo-pyrrolidine-2-carboxamide] | > 7.30
21 | COc1ccc(/C=C/C2CCC(F)(F)CC2)cc1NC(=O)[C@@H]1CCC(=O)N1C [Compound 24] | 6.52 to 7.30
22 | O=C1CCC(C(=O)Nc2cc(COc3cccc(F)c3)cc3c2OCO3)N1 (centres unmarked) [Compound 27, N-(6-((3-Fluorophenoxy)methyl)benzo[d][1,3]dioxol-4-yl)-5-oxopyrrolidine-2-carboxamide] | 6.52 to 7.30
23 | O=C1CCC(C(=O)Nc2cc(COc3cccc(F)c3)cc3c2OCC3)N1 (centres unmarked) [Compound 31, N-(5-((3-Fluorophenoxy)methyl)-2,3-dihydrobenzofuran-7-yl)-5-oxopyrrolidine-2-carboxamide] | 5.70 to 6.52
24 | CN1C(=O)CCC1C(=O)Nc1cc(COc2cccc(F)c2)cc2c1OCC2 (centres unmarked) [Compound 32, N-(5-((3-Fluorophenoxy)methyl)-2,3-dihydrobenzofuran-7-yl)-1-methyl-5-oxo-pyrrolidine-2-carboxamide] | 6.52 to 7.30
25 | O=C1CCC(C(=O)Nc2cc(Oc3cccc(C(F)(F)F)c3)cc3c2OCO3)N1 (centres unmarked) [Compound 33, 5-Oxo-N-(6-(3-(trifluoromethyl)phenoxy)benzo[d][1,3]dioxol-4-yl)pyrrolidine-2-carboxamide] | > 7.30
26 | CN1C(=O)CCC1C(=O)Nc1cc(Oc2cccc(C(F)(F)F)c2)cc2c1OCO2 (centres unmarked) [Compound 34, 1-Methyl-5-oxo-N-(6-(3-(trifluoromethyl)phenoxy)benzo[d][1,3]dioxol-4-yl)-pyrrolidine-2-carboxamide] | 6.52 to 7.30

The remaining lines, values ahead:

Row | pIC50 | Compound
27 | > 7.30 | COc1ccc(Oc2ccc(C(F)(F)F)cc2)cc1NC(=O)[C@H]1CCC(=O)N1 (stereo in doubt) [Compound 45, N-(2-Methoxy-5-(4-(trifluoromethyl)phenoxy)phenyl)-5-oxopyrrolidine-2-carboxamide]
28 | > 7.30 | COc1ccc(Oc2ccc(C(F)(F)F)cc2)cc1NC(=O)C1CCC(=O)N1 (centres unmarked) [Compound 1, N-(2-Methoxy-5-(4-(trifluoromethyl)phenoxy)phenyl)-5-oxo-pyrrolidine-2-carboxamide]
29 | 6.52 to 7.30 | COc1ccc(Oc2cccc(C(F)(F)F)c2)cc1NC(=O)C1CC(=O)N1 (centres unmarked) [Compound 8, N-(2-Methoxy-5-(3-(trifluoromethyl)phenoxy)phenyl)-4-oxoazetidine-2-carboxamide]
30 | 6.52 to 7.30 | COc1ccc(Oc2cccc(C(F)(F)F)c2)cc1NC(=O)C1CCC(=O)N1C (centres unmarked) [Compound 11, N-(2-Methoxy-5-(3-(trifluoromethyl)phenoxy)phenyl)-1-methyl-5-oxopyrro-lidine-2-carboxamide]
31 | 5.70 to 6.52 | COc1ccc(COc2cccc(F)c2)cc1NC(=O)C1CCS(=O)(=O)N1C (centres unmarked) [Compound 13, N-(5-((3-Fluorophenoxy)methyl)-2-methoxyphenyl)-2-methylisothiazolidine-3-carboxamide 1,1-dioxide]
32 | 6.52 to 7.30 | O=C1CCC(C(=O)Nc2cc(COc3cccc(F)c3)cc3ccoc23)N1 (centres unmarked) [Compound 17, N-(5-((3-Fluorophenoxy)methyl)benzofuran-7-yl)-5-oxopyrrolidine-2-carboxamide]
33 | > 7.30 | COc1ccc(/C=C/C2CCC(F)(F)CC2)cc1NC(=O)[C@H]1CCC(=O)N1C [Compound 23]
34 | 6.52 to 7.30 | COc1ccc(Oc2cccc(F)c2)cc1NC(=O)[C@H]1CCC(=O)N1 [Compound 25, (R)—N-(5-(3-Fluorophenoxy)-2-methoxyphenyl)-5-oxopyrrolidine-2-carboxamide]
35 | 5.70 to 6.52 | COc1ccc(COc2cccc(F)c2)cc1NC(=O)C1(C)CCNC1=O (centres unmarked) [Compound 26, N-(5-((3-Fluorophenoxy)methyl)-2-methoxyphenyl)-3-methyl-2-oxopyrrolidine-3-carboxamide]
36 | > 7.30 | CN1C(=O)CCC1C(=O)Nc1cc(Oc2cccc(C(F)(F)F)c2)cc2ccoc12 (centres unmarked) [Compound 28, 1-Methyl-5-oxo-N-(5-(3-(trifluoromethyl)phenoxy)benzofuran-7-yl)pyrrolidine-2-carboxamide]
37 | 6.52 to 7.30 | COc1ccc(Oc2cccc(C(F)(F)F)c2)cc1NC(=O)C1CCC(=O)N1C(C)=O (centres unmarked) [Compound 29, 1-Acetyl-N-(2-methoxy-5-(3-(trifluoromethyl)phenoxy)phenyl)-5-oxo-pyrrolidine-2-carboxamide]
38 | 5.70 to 6.52 | COc1c(F)cc(COc2cccc(F)c2)cc1NC(=O)C1CCC(=O)N1C (centres unmarked) [Compound 35, N-(3-Fluoro-5-((3-fluorophenoxy)methyl)-2-methoxyphenyl)-1-methyl-5-oxo-pyrrolidine-2-carboxamide]
